# In patent publication US7713963B2, “Acylated indanyl amines and their use as pharmaceuticals” (sanofi-aventis Deutschland GmbH, priority 2001, dated 2010):
# Read-outs that look alike come from different tables or passages of the source.
# How the values were obtained:
# eNOS promoter = assay: Activation of eNOS transcription (eNOS promoter-luciferase reporter gene assay); type: cell-based, human; settings: for maximal fold induction: read-out: TIR (max)
# Description: Measurement of activation of eNOS transcription Activation of eNOS transcription was measured as described in detail in Li et al. “Activation of protein kinase C alpha and/or epsilon enhances transcription of the human endothelial nitric oxide synthase gene”, Mol. Pharmacol. 1998; 53: 630-637. Briefly, a 3.5 kB long fragment 5′ of the starting codon of the eNOS gene was cloned, sequenced and cloned in firefly luciferase expression plasmids to monitor activation of the eNOS promoter by reporter gene activity. A human endothelial cell line stable transfected and expressing this promoter-reporter construct was used for compound testing. Cells were incubated for 18 h with compounds. All compounds were dissolved in sterile DMSO. A final concentration of 0.5% DMSO in complete medium was allowed. Induction of reporter gene expression in these cells was measured using a standard luciferase assay system (Promega, Cat. No E150) according to the manufacturer's instructions. Luciferase induction in cells incubated with compounds were compared to those incubated with solvent alone. The ratio of both activities (transcription induction ratio, TIR) was plotted as a function of compound concentration. […] EC50 values of transcription induction ratios as a function of compound concentration were determined graphically.
# [1] = Homo sapiens, 18 h, maximum transcription induction ratio (luciferase with compound / solvent alone), 18 h incubation
# [2] = Homo sapiens, Endothelial cell, 18 h, EC50 of transcription induction ratio, determined graphically, human endothelial cell line, 18 h incubation, read-out: EC-50
Compound,maximal fold induction (eNOS promoter; [1]),EC50 (eNOS promoter; [2]) [µM],also measured
"CC(=O)c1ccc2c(c1)CC(NC(=O)c1ccc(F)cc1)C2 (centres unmarked) [Compound 399, N-(5-ACETYL-INDAN-2-YL)-4-FLUORO-BENZAMIDE]",–,–,melting point: 148 °C
"COc1cc2c(cc1OC)CC(NC(=O)c1ccc(F)cc1)C2 [Compound 3, 4-FLUORO-N-(5,6-DIMETHOXY-INDAN-2-YL)-BENZAMIDE]",–,–,melting point: 160 °C
"O=C(NC1Cc2ccc(-c3ccc(F)cc3)cc2C1)c1ccc(F)cc1 (centres unmarked) [Compound 398A, 4-FLUORO-N-[5-(4-FLUOROPHENYL)-INDAN-2-YL]-BENZAMIDE]",–,–,melting point: 193 °C
"O=C(NC1Cc2ccc([N+](=O)[O-])cc2C1)c1ccc(F)cc1 (centres unmarked) [Compound 389, 4-FLUORO-N-(5-NITRO-INDAN-2-YL)-BENZAMIDE]",–,–,melting point: 167 °C
"O=C(NC1Cc2ccccc2C1)c1cccc(Cl)c1F [Compound 250, 3-CHLORO-2-FLUORO-N-INDAN-2-YL-BENZAMIDE]",2.5,58,–
"CC1=C(C(=O)NC2Cc3ccccc3C2)Cc2ccccc21 [Compound 251, 3-METHYL-1H-INDENE-2-CARBOXYLIC ACID INDAN-2-YLAMIDE]",2.6,13,–
"CCc1cccc2c1CC(NC(=O)c1ccc(F)cc1)C2 (centres unmarked) [Compound 428, N-(4-ETHYL-INDAN-2-YL)-4-FLUORO-BENZAMIDE]",2.8,0.841,–
"O=C(N[C@@H]1Cc2ccccc2[C@H]1O)c1ccc(F)cc1 (relative stereo) [Compound 8, 4-FLUORO-N-(TRANS-1-HYDROXY-INDAN-2-YL)-BENZAMIDE]",2.2,8,–
"O=C(NC1Cc2ccccc2C1)c1cccc(NC(=O)C2CC2)c1 [Compound 376, 3-(CYCLOPROPANECARBONYL-AMINO)-N-INDAN-2-YL-BENZAMIDE]",2.4,5.3,–
"Cc1ccc(F)cc1C(=O)NC1Cc2ccccc2C1 [Compound 248, 5-FLUORO-N-INDAN-2-YL-2-METHYL-BENZAMIDE]",2.8,7.8,–
"O=C(NC1Cc2ccccc2C1)c1ccc(Br)cc1 [Compound 289, 4-BROMO-N-INDAN-2-YL-BENZAMIDE]",2.6,0.142,–
"O=C(NC1Cc2ccccc2C1)c1cccc2ccccc12 [Compound 294, NAPHTHALENE-1-CARBOXYLIC ACID INDAN-2-YLAMIDE]",2.2,14,–
"O=C(NC1Cc2ccccc2C1)c1cccc(-c2ccccn2)c1 [Compound 433, N-INDAN-2-YL-3-PYRIDIN-2-YL-BENZAMIDE]",2.6,19,–
"O=C(NC1Cc2ccccc2C1)c1ccc(F)c(Br)c1 [Compound 33, 3-BROMO-4-FLUORO-N-INDAN-2-YL-BENZAMIDE]",3.3,4,–
"Cc1ccc(F)c(C(=O)NC2Cc3ccccc3C2)c1Cl [Compound 346, 2-CHLORO-6-FLUORO-N-INDAN-2-YL-3-METHYL-BENZAMIDE]",2.6,26,–
"Cc1nc(C)c(C(=O)NC2Cc3ccccc3C2)s1 [Compound 233, 2,4-DIMETHYL-THIAZOLE-5-CARBOXYLIC ACID INDAN-2-YLAMIDE]",2.5,13,–
"O=C(NC1Cc2ccccc2C1)c1ccc(OCc2ccccc2)cc1 [Compound 40, 4-BENZYLOXY-N-INDAN-2-YL-BENZAMIDE]",–,–,melting point: 158.5 °C
"COc1ccc(C(=O)NC2Cc3ccccc3C2)cc1 [Compound 291, N-INDAN-2-YL-4-METHOXY-BENZAMIDE]",2.8,0.238,–
"Cc1nc(C(F)(F)F)ccc1C(=O)NC1Cc2ccccc2C1 [Compound 237, N-INDAN-2-YL-2-METHYL-6-TRIFLUOROMETHYL-NICOTINAMIDE]",2.5,7.7,–
"Cc1ccc2c(c1)CC(NC(=O)c1ccc(F)cc1)C2 (centres unmarked) [Compound 5, 4-FLUORO-N-(5-METHYL-INDAN-2-YL)-BENZAMIDE]",2.5,30,–
"O=C(NC1Cc2cccc(I)c2C1)c1ccc(F)cc1 (centres unmarked) [Compound 408, 4-FLUORO-N-(4-IODO-INDAN-2-YL)-BENZAMIDE]",2.5,11,–
"CC(C)(C)C(=O)Nc1cccc(C(=O)NC2Cc3ccccc3C2)c1 [Compound 380, 3-(2,2-DIMETHYL-PROPIONYLAMINO)-N-INDAN-2-YL-BENZAMIDE]",2.6,2.3,–
"O=C(NC1Cc2ccccc2C1)c1ccccc1Cl [Compound 275, 2-CHLORO-N-INDAN-2-YL-BENZAMIDE]",3,0.559,–

Compound,maximal fold induction (eNOS promoter; [1]),EC50 (eNOS promoter; [2]) [µM],also measured
"CSc1ccc(C(=O)NC2Cc3ccccc3C2)cc1 [Compound 292, N-INDAN-2-YL-4-METHYLSULFANYL-BENZAMIDE]",–,–,"maximal fold induction (eNOS promoter; Homo sapiens, 18 h): 2.9; EC50 (eNOS promoter; Homo sapiens, Endothelial cell, 18 h): 0.039 µM"
"O=C(NC1Cc2ccccc2C1)c1ccc(Cl)nc1Cl [Compound 203, 2,6-DICHLORO-N-INDAN-2-YL-NICOTINAMIDE]",2.7,16,–
"Cc1cc(C)c(C(=O)NC2Cc3ccccc3C2)c(C)c1 [Compound 282, N-INDAN-2-YL-2,4,6-TRIMETHYL-BENZAMIDE]",2.3,16,–
"Cc1ccc(F)c(C(=O)NC2Cc3ccccc3C2)c1 [Compound 266, 2-FLUORO-N-INDAN-2-YL-5-METHYL-BENZAMIDE]",2.5,22,–
"Cc1cc(C)c(C(=O)NC2Cc3ccccc3C2)cn1 [Compound 189, N-INDAN-2-YL-4,6-DIMETHYL-NICOTINAMIDE]",2.2,10,–
"O=C(NC1Cc2ccccc2C1)c1sc2cccc(Cl)c2c1Cl [Compound 329, 3,4-DICHLORO-BENZO[B]THIOPHENE-2-CARBOXYLIC ACID INDAN-2-YLAMIDE]",1.5,2.2,–
"CS(=O)(=O)c1csc(C(=O)NC2Cc3ccccc3C2)c1Cl [Compound 321, 3-CHLORO-4-METHANESULFONYL-THIOPHENE-2-CARBOXYLIC ACID INDAN-2-YLAMIDE]",2.5,9.6,–
"CS(=O)(=O)Nc1cccc(C(=O)NC2Cc3ccccc3C2)c1 [Compound 388, N-INDAN-2-YL-3-METHANE SULFONYLAMINO-BENZAMIDE]",–,–,"EC50 (eNOS promoter; EC50 of transcription induction ratio, determined graphically, human endothelial cell line, 18 h incubation, read-out: EC-50): 1.1 µM; TIR (max) (eNOS promoter; maximum transcription induction ratio (luciferase with compound / solvent alone), 18 h incubation): 2.4"
"O=C(NC1Cc2ccccc2C1)c1cc(F)c(Cl)cc1F [Compound 263, 4-CHLORO-2,5-DIFLUORO-N-INDAN-2-YL-BENZAMIDE]",2.5,13,–
"O=C(NC1Cc2ccccc2C1)c1ccc(F)cc1Br [Compound 61, 2-BROMO-4-FLUORO-N-INDAN-2-YL-BENZAMIDE]",2.6,0.7,–
"Cc1ccccc1C(=O)NC1Cc2ccccc2C1 [Compound 281, N-INDAN-2-YL-2-METHYL-BENZAMIDE]",3,0.684,–
"Cc1cccc(C(=O)NC2Cc3ccccc3C2)c1F [Compound 249, 2-FLUORO-N-INDAN-2-YL-3-METHYL-BENZAMIDE]",2.5,15,–
"CCOc1ccc(C(=O)NC2Cc3ccccc3C2)c(O)c1 [Compound 23, 4-ETHOXY-2-HYDROXY-N-INDAN-2-YL-BENZAMIDE]",2.2,5,–
"O=C(NC1Cc2ccccc2C1)c1ccc(SC(F)(F)F)cc1 [Compound 246, N-INDAN-2-YL-4-TRIFLUOROMETHYLSULFANYL-BENZAMIDE]",2.5,0.67,–
"CN(C)C(=O)C=Cc1cccc2c1CC(NC(=O)c1ccc(F)cc1)C2 (centres unmarked) [Compound 411, N-[4-(2-DIMETHYLCARBAMOYL-VINYL)-INDAN-2-YL]-4-FLUORO-BENZAMIDE]",2.5,2,–
"CCCCOc1ccc(C(=O)NC2Cc3ccccc3C2)cc1 [Compound 30, 4-BUTOXY-N-INDAN-2-YL-BENZAMIDE]",2.94,3,–
"O=C(NC1Cc2ccccc2C1)c1ccc(Cl)cc1 [Compound 69, 4-CHLORO-N-INDAN-2-YL-BENZAMIDE]",4.2,0.4,–
"CC(C)Oc1ccc(C(=O)NC2Cc3ccccc3C2)cc1 [Compound 28, 4-ISOPROPYLOXY-N-INDAN-2-YL-BENZAMIDE]",4.4,2.5,–
"CC(C)C(=O)Nc1cccc(C(=O)NC2Cc3ccccc3C2)c1 [Compound 372, N-INDAN-2-YL-3-ISOBUTYRYLAMINO-BENZAMIDE]",2.7,1.6,–
"O=C(NC1Cc2ccccc2C1)c1c(F)ccc(F)c1Cl [Compound 360, 2-CHLORO-3,6-DIFLUORO-N-INDAN-2-YL-BENZAMIDE]",2.6,10,–
"O=C(NC1Cc2ccccc2C1)c1cccc(-c2cccnc2)c1 [Compound 432, N-INDAN-2-YL-3-PYRIDIN-3-YL-BENZAMIDE]",2.5,9.6,–
"CC(O)c1ccc2c(c1)CC(NC(=O)c1ccc(F)cc1)C2 (centres unmarked) [Compound 402, 4-FLUORO-N-[5-(1-HYDROXY-ETHYL)-INDAN-2-YL]-BENZAMIDE]",–,–,melting point: 135 °C
"O=C(NC1Cc2c(I)ccc(I)c2C1)c1ccc(F)cc1 [Compound 429, N-(4,7-DIIODO-INDAN-2-YL)-4-FLUORO-BENZAMIDE]",2.8,0.6,–
